Like-named read-outs stand apart in the source and are kept apart here.
Experiments:
Erk1 = molecular target: T1, Erk1 (Homo sapiens, UniProt P27361); assay: Protein Mass Modification Assay (intact protein MALDI, 60 min, 10-fold excess of compound); assay type: binding
T1 construct: purchased Millipore 14-439
Method in brief: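 Human Erk1 was incubated 60 min at room temperature with a 10-fold molar excess of compound, then analysed as intact protein by MALDI with sinapinic acid matrix. The centroid mass shift versus untreated protein was divided by compound molecular weight to give percent modified protein.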

MEK1 activated ERK1 = molecular target: T2, MEK1 activated ERK1 (Homo sapiens, UniProt P27361); assay: Omnia continuous-read kinase assay for potency against MEK1 activated ERK1; assay type: biochemical
T2 construct: purchased Millipore (Billerica, Mass.) 14-439-K
T2 sequence (P27361 whole entry): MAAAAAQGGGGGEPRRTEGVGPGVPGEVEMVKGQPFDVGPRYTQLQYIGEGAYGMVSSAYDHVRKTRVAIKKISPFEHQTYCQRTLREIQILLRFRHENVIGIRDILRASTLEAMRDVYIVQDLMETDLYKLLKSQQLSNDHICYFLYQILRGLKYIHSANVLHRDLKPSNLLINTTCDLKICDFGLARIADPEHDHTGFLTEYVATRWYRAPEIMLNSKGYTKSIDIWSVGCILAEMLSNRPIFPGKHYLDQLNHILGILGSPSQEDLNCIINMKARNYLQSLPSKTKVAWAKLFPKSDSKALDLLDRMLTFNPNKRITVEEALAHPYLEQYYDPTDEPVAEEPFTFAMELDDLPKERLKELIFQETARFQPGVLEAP
Method in brief: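 Apparent IC50 came from initial reaction slopes (RFU vs time) plotted against log inhibitor with a variable-slope fit. Reactions were started with ERK1 (4 nM final) added to 50 μM ATP, roughly at its appKM, and 10 μM Sox-conjugated ST17 peptide in 20 mM Tris pH 7.5, 5 mM MgCl2. Fluorescence was monitored every 71 seconds.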

[1] = system: ERK1/2 phosphorylation of p90RSK in HCT116 cells; assay: Detection of total and phospho-RSK by MSD ELISA (HCT116); assay type: cell-based; settings: Homo sapiens, HCT-116, read-out: ERK1/ERK2 PRSK HCT116 EC50
Method in brief: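 HCT116 cells treated with compound in RPMI/10% FBS for 2 h at 37° C, then lysed. Phospho-RSK (Ser380) and total RSK in lysates measured by MSD sandwich electrochemiluminescence ELISA as a readout of ERK1/2 activity.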

T1 sequence (P27361 whole entry): as above

ERK1 Mass Mod (%) (Erk1) | IC50 (MEK1 activated ERK1; ATP at KM, WT) [nM] | EC50 [1] [nM] | Structure (SMILES) | IC50 (MEK1 activated ERK1; MEK1 activated ERK1, ATP at KM, read-out: ERK1 Omnia WT ATP KM IC50) [nM]
E (a mass modification of ≧70%) | 501 to 999 | > 1000 | C=CC(=O)Nc1cc(C)ccc1Nc1nc(Nc2cc(-c3c[nH]cn3)ccc2C)ncc1C(F)(F)F [Compound I-378, N-(2-((2-((5-(1H-imidazol-4-yl)-2-methylphenyl)amino)-5-(trifluoromethyl)pyrimidin-4-yl)amino)-5-methylphenyl)acrylamide] | 
E (a mass modification of ≧70%) | 501 to 999 | 501 to 999 | C=CC(=O)Nc1cc(CN2CCN(C(=O)c3cnccn3)CC2)ccc1Nc1nc(Nc2nc(OC)ncc2C)ncc1C(F)(F)F [Compound I-393, N-(2-((2-((2-methoxy-5-methylpyrimidin-4-yl)amino)-5-(trifluoromethyl)pyrimidin-4-yl)amino)-5-((4-(pyrazine-2-carbonyl)piperazin-1-yl)methyl)phenyl)acrylamide] | 
E (a mass modification of ≧70%) | < 100 | < 100 | C=CC(=O)Nc1cc(CCC(N)=O)ccc1Nc1nc(Nc2cc(OC)ncc2C)ncc1C(F)(F)F [Compound I-400, N-(5-(3-amino-3-oxopropyl)-2-((2-((2-methoxy-5-methylpyridin-4-yl)amino)-5-(trifluoromethyl)pyrimidin-4-yl)amino)phenyl)acrylamide] | 
F (a mass modification of 31-69%) | 101 to 500 | 101 to 500 | C=CC(=O)Nc1cc(C)ccc1Nc1nc(Nc2cc(P(C)(C)=O)ncc2C)ncc1C(F)(F)F [Compound I-343, N-(2-((2-((2-(dimethylphosphoryl)-5-methylpyridin-4-yl)amino)-5-(trifluoromethyl)pyrimidin-4-yl)amino)-5-methylphenyl)acrylamide] | 
E (a mass modification of ≧70%) | < 100 | < 100 | C=CC(=O)Nc1cc(CN2CCN(C(=O)CO)CC2)ccc1Nc1nc(Nc2cc(OC)ncc2C)ncc1C(F)(F)F [Compound I-385, N-(5-((4-(2-hydroxyacetyl)piperazin-1-yl)methyl)-2-((2-((2-methoxy-5-methylpyridin-4-yl)amino)-5-(trifluoromethyl)pyrimidin-4-yl)amino)phenyl)acrylamide] | 

Structure (SMILES) | ERK1 Mass Mod (%) (Erk1) | IC50 (MEK1 activated ERK1; ATP at KM, WT) [nM] | EC50 [1] [nM] | IC50 (MEK1 activated ERK1; MEK1 activated ERK1, ATP at KM, read-out: ERK1 Omnia WT ATP KM IC50) [nM]
C=CC(=O)Nc1cc(C)ccc1Nc1nc(Nc2cc(N[C@H]3CC[C@](C)(O)CC3)nc(OC)c2)ncc1C(F)(F)F [Compound I-327, N-(2-((2-((2-((trans-4-hydroxy-4-methylcyclohexyl)amino)-6-methoxypyridin-4-yl)amino)-5-(trifluoromethyl)pyrimidin-4-yl)amino)-5-methylphenyl)acrylamide] | E (a mass modification of ≧70%) |  | < 100 | 101 to 500
